Consider 35 molecules from patent publication US11638706B2, “Methods for treating Huntington's disease” (PTC Therapeutics, Inc., priority 2015, dated 2023).

Where only a bound is given, the exact number is not on record here.

What is called IC50 is the concentration that inhibits the measured activity by half.

The assay relates to Huntingtin protein (HTT). Kind of assay: Endogenous Huntingtin Protein Assay (MSD electrochemiluminescence ELISA; MW1 or MAB2166 capture, #5656S detection). The assay is classed as cell-based, human. The method, then: The Endogenous Huntingtin Protein assay used in Example 2 was developed using the Best Pair antibodies identified in Table 2, providing highly sensitive, high-throughput detection assays for polyglutamine-expanded (mHTT) and total human HTT in multiple cell systems. The platform used for the assay is the ELISA-based Meso Scale Discovery (MSD) electrochemiluminescence assay platform.
Meso Scale Discovery (MSD) 96-well or 384-well plates were coated overnight at 4° C. with MW1 (expanded polyglutamine) or MAB2166 monoclonal antibody (for capture) at a concentration of 1 μg/mL in PBS (30 μL per well). Plates were then washed three times with 300 μL wash buffer (0.05% Tween-20 in PBS) and blocked (100 μL blocking buffer; 5% BSA in PBS) for 4-5 hours at room temperature with rotational shaking and then washed three times with wash buffer.
Samples (25 μL) were transferred to the antibody-coated MSD plate and incubated overnight at 4° C. After removal of the lysates, the plate was washed three times with wash buffer, and 25 μL of #5656S (Cell signaling; rabbit monoclonal) secondary antibody (diluted to 0.25 μg/mL in 0.05% Tween-20 in blocking buffer) was added to each well and incubated with shaking for 1 Hour at room temperature. Following incubation with the secondary antibody, the wells were rinsed with wash buffer after which 25 μL of goat anti-rabbit SULFO TAG secondary detection antibody (required aspect of the MSD system) (diluted to 0.25 μg/mL in 0.05% Tween-20 in blocking buffer) was added to each well and incubated with shaking for 1 hour at room temperature. After rinsing three times with wash buffer, 150 μL of read buffer T with surfactant (MSD) were added to each empty well, and the plate was imaged on a SI 6000 imager (MSD) according to manufacturers' instructions provided for 96- or 384-well plates.
(In general: ELISA stands for enzyme-linked immunosorbent assay.)

`CC1(C)CC(Oc2ccc(-c3ccc(-c4ccnc(O)c4)cc3O)nn2)CC(C)(C)N1` [Cpd 176, 4-(3-hydroxy-4-(6-((2,2,6,6-tetramethylpiperidin-4-yl)oxy)pyridazin-3-yl)phenyl)pyridin-2-ol]: the 50% inhibitory concentration (IC50) was at most 100 nM.

In turn, `CC1(C)CC(Oc2ccc(-c3ccc(-n4cc([N+](=O)[O-])cn4)cc3O)nn2)CC(C)(C)N1` [Cpd 423, 5-(4-nitro-1H-pyrazol-1-yl)-2-{6-[(2,2,6,6-tetramethylpiperidin-4-yl)oxy]pyridazin-3-yl}phenol] yielded an IC50 of at most 100 nM.

`CC1(C)CC(Nc2ccc(-c3ccc(-c4cn[nH]c4)cc3O)nn2)CC(C)(C)N1` [Cpd 413, 5-(1H-pyrazol-4-yl)-2-{6-[(2,2,6,6-tetramethylpiperidin-4-yl)amino]pyridazin-3-yl}phenol] returned a concentration for half-maximal inhibition (IC50) of at most 100 nM.

On to `Cn1cc2cc(-c3ccc(OC4CC(C)(C)NC(C)(C)C4)nn3)ccc2n1` [Cpd 443, 2-methyl-5-{6-[(2,2,6,6-tetramethylpiperidin-4-yl)oxy]pyridazin-3-yl}-2H-indazole], for which the IC50 is 3000 to 9000 nM.

Regarding `Cc1cnc(-c2ccc(-c3ccc(N(C)C4CC(C)(C)NC(C)(C)C4)nn3)c(O)c2)o1` [Cpd 44, 5-(5-methyl-oxazol-2-yl)-2-(6-(methyl-(2,2,6,6-tetramethylpiperidin-4-yl)-amino)-pyridazin-3-yl)phenol], the IC50 was at most 100 nM.

As for `CN(c1ccc(-c2ccc(-c3cn[nH]c3)cc2Cl)nn1)C1CC(C)(C)NC(C)(C)C1` [Cpd 456, 6-[2-chloro-4-(1H-pyrazol-4-yl)phenyl]-N-methyl-N-(2,2,6,6-tetramethylpiperidin-4-yl)pyridazin-3-amine], the IC50 was 3000 to 9000 nM.

Take `CC1(C)CC(Oc2ccc(-c3ccc(-c4cn[nH]c4)nc3O)nn2)CC(C)(C)N1` [Cpd 461, 6-(1H-pyrazol-4-yl)-3-{6-[(2,2,6,6-tetramethylpiperidin-4-yl)oxy]pyridazin-3-yl}pyridin-2-ol]: the IC50 is 3000 to 9000 nM.

The molecule `COc1cc(-c2cn[nH]c2)ccc1-c1nnc(N(C)C2CC(C)(C)NC(C)(C)C2)s1` [Cpd 307] yielded an IC50 of 100 to 500 nM.

In turn, `CN(c1nnc(-c2ccc(-c3cn[nH]c3)cc2O)s1)C1CC(C)(C)NC(C)(C)C1` [Cpd 393] gave an IC50 of at most 100 nM.

`CC1(C)CC(Oc2ccc(-c3ccc(-c4cn[nH]c4)cc3)nn2)CC(C)(C)N1` [Cpd 435, 3-[4-(1H-pyrazol-4-yl)phenyl]-6-[(2,2,6,6-tetramethylpiperidin-4-yl)oxy]pyridazine]: the concentration for half-maximal inhibition (IC50) lay within 500 to 1000 nM.

As for `CC1(C)CC(Oc2ccc(-c3cc4ccccc4cc3O)nn2)CC(C)(C)N1` [Cpd 31, 3-(6-((2,2,6,6-tetramethylpiperidin-4-yl)oxy)pyridazin-3-yl)naphthalen-2-ol], the IC50 was 100 to 500 nM.

`Oc1cc(-c2cn[nH]c2)ccc1-c1ccc(N2CC3(CCNC3)C2)nn1` [Cpd 459, 2-[6-(2,6-diazaspiro[3.4]oct-2-yl)pyridazin-3-yl]-5-(1H-pyrazol-4-yl)phenol] showed an IC50 of 3000 to 9000 nM.

As to `Oc1cc(-c2cn[nH]c2)ccc1-c1ccc(N2CC3(CCNCC3)C2)nn1` [Cpd 439, 2-[6-(2,7-diazaspiro[3.5]non-2-yl)pyridazin-3-yl]-5-(1H-pyrazol-4-yl)phenol], the IC50 lay within 1000 to 3000 nM.

For `CN(c1ccc(-c2ccc(C#N)cc2O)nn1)C1CC(C)(C)NC(C)(C)C1` [Cpd 39, 3-hydroxy-4-(6-(methyl(2,2,6,6-tetramethylpiperidin-4-yl)amino)pyridazin-3-yl)benzonitrile], the IC50 lay within 3000 to 9000 nM.

Molecule `Oc1cc(-c2cn[nH]c2)ccc1-c1ccc(C2=CCNCC2)nn1` [Cpd 424, 5-(1H-pyrazol-4-yl)-2-[6-(1,2,3,6-tetrahydropyridin-4-yl)pyridazin-3-yl]phenol] returned an IC50 of 100 to 500 nM.

As to `Oc1cc(-c2cn[nH]c2)ccc1-c1ccc(OC2C[C@H]3CC[C@@H](C2)N3)nn1` (stereo partly drawn) [Cpd 415, 2-[6-((1R,5S)-8-azabicyclo[3.2.1]oct-3-yloxy)pyridazin-3-yl]-5-(1H-pyrazol-4-yl)phenol], the IC50 is at most 100 nM.

`Oc1cc(-c2cn[nH]c2)ccc1-c1ccc(NC2CCNCC2)nn1` [Cpd 427, 2-[6-(piperidin-4-ylamino)pyridazin-3-yl]-5-(1H-pyrazol-4-yl)phenol] returned an IC50 of 100 to 500 nM.

With `COc1nc(-c2cn[nH]c2)ccc1-c1ccc(N(C)C2CC(C)(C)NC(C)(C)C2)nn1` [Cpd 434, 6-[2-methoxy-6-(1H-pyrazol-4-yl)pyridin-3-yl]-N-methyl-N-(2,2,6,6-tetramethylpiperidin-4-yl)pyridazin-3-amine], the IC50 is 500 to 1000 nM.

Turning to `CN1CC=C(c2ccc(-c3ccc(-c4cn[nH]c4)cc3O)nn2)CC1` [Cpd 422, 2-[6-(1-methyl-1,2,3,6-tetrahydropyridin-4-yl)pyridazin-3-yl]-5-(1H-pyrazol-4-yl)phenol], the 50% inhibitory concentration (IC50) was at most 100 nM.

Molecule `CN(c1ccc(-c2ccc(-n3ccnc3)cc2O)nn1)C1CC(C)(C)NC(C)(C)C1` [Cpd 46, 5-(1H-imidazol-1-yl)-2-(6-(methyl(2,2,6,6-tetramethylpiperidin-4-yl)amino)pyridazin-3-yl)phenol] came in with a concentration for half-maximal inhibition (IC50) of at most 100 nM.

For `COc1cc(-n2cc([N+](=O)[O-])cn2)ccc1-c1ccc(OC2CC(C)(C)NC(C)(C)C2)nn1` [Cpd 454, 3-[2-methoxy-4-(4-nitro-1H-pyrazol-1-yl)phenyl]-6-[(2,2,6,6-tetramethylpiperidin-4-yl)oxy]pyridazine], the IC50 is 3000 to 9000 nM.

As for `CN(c1ccc(-c2ccc(-c3cnn(C)c3)cc2O)nn1)C1CC(C)(C)NC(C)(C)C1` [Cpd 51, 2-(6-(methyl(2,2,6,6-tetramethylpiperidin-4-yl)amino)pyridazin-3-yl)-5-(1-methyl-1H-pyrazol-4-yl)phenol], the IC50 is at most 100 nM.

The molecule `CN(c1ccc(-c2ccc(-c3ccnc(O)c3)cc2O)nn1)C1CC(C)(C)NC(C)(C)C1` [Cpd 170, 4-(3-hydroxy-4-(6-(methyl(2,2,6,6-tetramethylpiperidin-4-yl)amino)pyridazin-3-yl)phenyl)pyridin-2-ol] had an IC50 of at most 100 nM.

On to `CN(c1ccc(-c2ccc3nn(C)cc3c2)nn1)C1CC(C)(C)NC(C)(C)C1` [Cpd 442, N-methyl-6-(2-methyl-2H-indazol-5-yl)-N-(2,2,6,6-tetramethylpiperidin-4-yl)pyridazin-3-amine], for which the IC50 is 3000 to 9000 nM.

Take `CC1(C)CC(Oc2ccc(-c3cc(-c4cn[nH]c4)cs3)nn2)CC(C)(C)N1` [Cpd 450, 3-[4-(1H-pyrazol-4-yl)thiophen-2-yl]-6-[(2,2,6,6-tetramethylpiperidin-4-yl)oxy]pyridazine]: the IC50 fell in the range of 3000 to 9000 nM.

In turn, `CN(c1ccc(-c2ccc(-n3cc([N+](=O)[O-])cn3)cc2O)nn1)C1CC(C)(C)NC(C)(C)C1` [Cpd 419, 2-{6-[methyl(2,2,6,6-tetramethylpiperidin-4-yl)amino]pyridazin-3-yl}-5-(4-nitro-1H-pyrazol-1-yl)phenol] registered an IC50 of at most 100 nM.

`Cn1cc(-c2ccc(-c3ccc(OC4CC(C)(C)NC(C)(C)C4)nn3)s2)cn1` [Cpd 449, 3-[5-(1-methyl-1H-pyrazol-4-yl)thiophen-2-yl]-6-[(2,2,6,6-tetramethylpiperidin-4-yl)oxy]pyridazine] came in with an IC50 of 3000 to 9000 nM.

Take `CN(c1nnc(-c2cc(F)c(-c3cn[nH]c3)cc2F)s1)C1CC(C)(C)NC(C)(C)C1` [Cpd 350]: the IC50 is at most 100 nM.

As for `CC1(C)CC(Oc2ccc(-c3ccc(-c4cn[nH]c4)s3)nn2)CC(C)(C)N1` [Cpd 448, 3-[5-(1H-pyrazol-4-yl)thiophen-2-yl]-6-[(2,2,6,6-tetramethylpiperidin-4-yl)oxy]pyridazine], the IC50 lay within 3000 to 9000 nM.

On to `CN(c1ccc(-c2ccc(-c3cn[nH]c3)cc2O)nn1)C1CC(C)(C)NC(C)(C)C1` [Cpd 48, 2-(6-(methyl(2,2,6,6-tetramethylpiperidin-4-yl)amino)pyridazin-3-yl)-5-(1H-pyrazol-4-yl)phenol], for which the concentration for half-maximal inhibition (IC50) is at most 100 nM.

`Cn1cc(-c2ccc(-c3ccc(OC4CC(C)(C)NC(C)(C)C4)nn3)c(O)c2)cn1` [Cpd 414, 5-(1-methyl-1H-pyrazol-4-yl)-2-{6-[(2,2,6,6-tetramethylpiperidin-4-yl)oxy]pyridazin-3-yl}phenol]: the IC50 was at most 100 nM.

In turn, `CN(c1ccc(-c2ccc(-c3cn[nH]c3)cc2C(F)F)nn1)C1CC(C)(C)NC(C)(C)C1` [Cpd 465, 6-[2-(difluoromethyl)-4-(1H-pyrazol-4-yl)phenyl]-N-methyl-N-(2,2,6,6-tetramethylpiperidin-4-yl)pyridazin-3-amine] came in with an IC50 of 3000 to 9000 nM.

Turning to “3-[2-methoxy-4-(1H-pyrazol-1-yl)phenyl]-6-[(2,2,6,6-tetramethylpiperidin-4-yl)oxy]pyridazine [Cpd 447]”, the IC50 lay in the range of 3000 to 9000 nM.

For the molecule `Oc1cc(-c2cn[nH]c2)ccc1-c1ccc(NC2C[C@H]3CC[C@@H](C2)N3)nn1` (stereo partly drawn) [Cpd 433, 2-{6-[(1R,5S)-8-azabicyclo[3.2.1]oct-3-ylamino]pyridazin-3-yl}-5-(1H-pyrazol-4-yl)phenol], the IC50 fell in the range of 100 to 500 nM.

On to `CC1(C)CC(Oc2ccc(-c3c(F)cc(-c4cn[nH]c4)cc3F)nn2)CC(C)(C)N1` [Cpd 458, 3-[2,6-difluoro-4-(1H-pyrazol-4-yl)phenyl]-6-[(2,2,6,6-tetramethylpiperidin-4-yl)oxy]pyridazine], for which the IC50 is 3000 to 9000 nM.
